This note sets out measurements from patent US8338420B1, “Treatment of Parkinson's disease and enhancement of dopamine signal using PDE 10 inhibitor” (Mitsubishi Tanabe Pharma Corporation, priority 2002, dated 2012).

The target in one experiment is PDE4. As to the kind of experiment: PDE assay, PDE4 enzyme solution from dog lung. Format: biochemical, mixed-breed dog. To be noted: substrate about 4.8 nM [3H]-cAMP and 1 μM cAMP. How it is done:
These fractions were collected and glycerol was added thereto to become 50%, and the mixture was stored at −20° C.

For another experiment, the target named is T1, PDE5 (Canis lupus familiaris, UniProt O77746).
T1 construct: These were used as a PDE5 enzyme solution for PDE assay; tissue Oriental Yeast (animals); host or cells: canine lung, soluble fraction, DEAE Sepharose fractions
Nature of the experiment: PDE assay, PDE5 enzyme solution from canine lung. To be noted: substrate about 12 nM [3H]-cGMP and 1 μM cGMP. The experiment is classed as biochemical. How it is done:
In the same manner as in (1-4) above, the supernatant obtained from the homogenate of canine lung tissue was applied to chromatography under FLPC system, to collect eluted fractions of 2 ml each.
Subsequently, the eluted fractions were used as an enzyme solution for PDE assay, and cGMP-hydrolyzing activity was measured for respective fractions, in the presence or absence of E4021, the PDE5 specific inhibitor.
Further, for examining contamination of PDE1, which is adjacently eluted, cGMP-hydrolyzing PDE activity of the respective fractions were measured in the same assay buffer containing EGTA (final concentration of 1 mM) [or calcium chloride (final concentration of 2 mM) and calmodulin (40 units/ml)].
These fractions were collected and glycerol was added thereto to become 50%, and the mixture was stored at −20° C. These were used as a PDE5 enzyme solution for PDE assay.

The subject of experiment [1] is rat 6-hydroxydopamine model. As to the kind of experiment: Rat 6-hydroxydopamine model, L-dopa induced rotational behaviors. The experiment is classed as in vivo, SD rat. To be noted: 1 mg/kg, i.v.; L-dopa 10 mg/kg i.p. + benserazide 2.5 mg/kg i.p. How it is done:
Preparation of rat 6-hydroxydopamine model According to the method described in the literature (Koga et al., European Journal of Pharmacology, vol. 408, pp. 249-255, 2000), 6-hydroxydopamine (6-OHDA) was administered in the rat's brain, to cause lesion in the substantia nigra of the brain, to thereby cause motor disability. As the rats, male SD (Sprague Dawley) rats (about 9 to 10 week old) were used. To these rats was administered desipramine (available from Sigma) (25 mg/kg, i.p.). Desipramine was used after being dissolved in distilled water to be 25 mg/ml. […]
One week after administration of 6-OHDA, apomorphine was administered, and rotational behaviors were confirmed to appear due to the lesion of substantia nigra by 6-OHDA in one hemisphere. […] Turnings were counted in every 5-minute interval, until rotational behaviors disappeared or until an event was repeated twice in which the number of turnings became 5 or less during the 5-minute interval. […]
To the model rat prepared in the above (1) (2 weeks after administration of apomorphine), L-dopa and benserazide (dopa decarboxylase inhibitor which inhibits degradation of L-dopa) were administered, and numbers of tunings were measured. […]
L-dopa was administered 30 minutes after benserazide administration, and turnings were counted after L-dopa administration. […]

In turn, `COc1ccc(-c2cc(N3CCCC3)nc(/C=C/c3nc(-n4ccnc4)c4ccccc4n3)n2)cc1OC` [Compound A, 2-{(E)-2-[4-(1-imidazolyl)-quinazolin-2-yl]}ethenyl-4-(3,4-dimethoxy)phenyl-6-(pyrrolidin-1-yl)pyrimidine] yielded an IC50 against PDE4 of 160 nM. At PDE5, this compound registered an IC50 above 1000 nM. Further, in experiment [1], the “L-dopa induced rotational behaviors, total number of turnings” value is recorded as “tended to increase” and the “duration of L-dopa induced rotational behaviors” value is reported as “significantly prolonged”.

In general, IC50 refers to the concentration that inhibits the measured activity by half. The low end stands for inhibition by little substance, the high end for a need for much substance.
